According to the kinase profiling compilation of Christmann-Franck et al. (2016):

Assays:
Assay in all cases: KINOMEscan competition binding
Conditions in all cases: compound 10.0 µM
BMPR1B (human) = BMPR1B (human) (UniProt O00238)
ACVR2B (human) = ACVR2B (human) (UniProt Q13705)
MAP2K6 (human) = MAP2K6 (human) (UniProt P52564)
RPS6KA6 KD1 (human) = RPS6KA6 KD1 (human) (UniProt Q9UK32)
PRKG2 (human) = PRKG2 (human) (UniProt Q13237)
EPHA6 (human) = EPHA6 (human) (UniProt Q9UF33)
PAK3 (human) = PAK3 (human) (UniProt O75914)
RPS6KA2 KD1 (human) = RPS6KA2 KD1 (human) (UniProt Q15349)
RPS6KA2 KD1 (human), sequence (Q15349 whole entry, looked up): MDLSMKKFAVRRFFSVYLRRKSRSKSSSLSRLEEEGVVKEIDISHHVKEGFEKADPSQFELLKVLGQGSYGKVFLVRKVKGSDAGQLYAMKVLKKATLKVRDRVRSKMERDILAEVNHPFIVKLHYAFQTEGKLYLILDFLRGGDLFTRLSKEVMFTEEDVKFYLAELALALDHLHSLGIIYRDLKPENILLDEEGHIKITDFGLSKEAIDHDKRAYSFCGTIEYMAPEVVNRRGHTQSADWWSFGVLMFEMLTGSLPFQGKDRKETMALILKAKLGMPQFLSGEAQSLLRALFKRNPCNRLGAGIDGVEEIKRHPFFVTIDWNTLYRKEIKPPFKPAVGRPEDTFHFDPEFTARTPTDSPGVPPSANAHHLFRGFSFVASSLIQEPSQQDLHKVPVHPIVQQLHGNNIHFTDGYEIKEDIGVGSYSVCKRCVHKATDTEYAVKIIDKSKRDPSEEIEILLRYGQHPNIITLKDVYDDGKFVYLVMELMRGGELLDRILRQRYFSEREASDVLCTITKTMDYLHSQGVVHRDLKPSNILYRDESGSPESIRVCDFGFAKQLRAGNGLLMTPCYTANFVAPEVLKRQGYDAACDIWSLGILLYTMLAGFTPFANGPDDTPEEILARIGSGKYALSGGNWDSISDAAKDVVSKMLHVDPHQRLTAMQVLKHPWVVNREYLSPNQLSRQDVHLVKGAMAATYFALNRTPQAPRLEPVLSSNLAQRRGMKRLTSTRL

MKNK2 (human) = MKNK2 (human) (UniProt Q9HBH9)
MKNK2 (human), sequence (Q9HBH9 whole entry, looked up): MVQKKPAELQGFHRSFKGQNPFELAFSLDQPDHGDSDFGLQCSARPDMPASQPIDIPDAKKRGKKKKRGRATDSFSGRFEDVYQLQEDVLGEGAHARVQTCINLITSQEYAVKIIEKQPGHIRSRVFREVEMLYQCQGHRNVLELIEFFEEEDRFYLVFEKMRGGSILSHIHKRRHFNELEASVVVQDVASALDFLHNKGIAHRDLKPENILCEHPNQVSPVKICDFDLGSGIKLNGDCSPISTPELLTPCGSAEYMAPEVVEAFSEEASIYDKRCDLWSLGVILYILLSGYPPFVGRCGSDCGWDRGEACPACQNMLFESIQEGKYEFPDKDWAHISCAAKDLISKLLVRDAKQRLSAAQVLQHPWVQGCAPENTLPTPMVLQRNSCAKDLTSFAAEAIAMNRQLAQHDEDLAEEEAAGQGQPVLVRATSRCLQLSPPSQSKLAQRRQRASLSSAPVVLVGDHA

NEK7 (human) = NEK7 (human) (UniProt Q8TDX7)
CDK3 (human) = CDK3 (human) (UniProt Q00526)
CDK3 (human), sequence (Q00526 whole entry, looked up): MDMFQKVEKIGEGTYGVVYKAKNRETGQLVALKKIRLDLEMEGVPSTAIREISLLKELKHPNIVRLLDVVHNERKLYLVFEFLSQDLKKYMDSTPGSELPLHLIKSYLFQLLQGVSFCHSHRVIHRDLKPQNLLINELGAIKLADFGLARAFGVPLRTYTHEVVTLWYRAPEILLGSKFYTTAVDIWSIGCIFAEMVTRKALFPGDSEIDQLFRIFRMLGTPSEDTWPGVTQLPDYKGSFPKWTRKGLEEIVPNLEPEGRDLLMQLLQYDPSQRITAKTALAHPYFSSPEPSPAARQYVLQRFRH

DYRK1B (human) = DYRK1B (human) (UniProt Q9Y463)
PAK4 (human) = PAK4 (human) (UniProt O96013)
TLK2 (human) = TLK2 (human) (UniProt Q86UE8)
TLK2 (human), sequence (Q86UE8 whole entry, looked up): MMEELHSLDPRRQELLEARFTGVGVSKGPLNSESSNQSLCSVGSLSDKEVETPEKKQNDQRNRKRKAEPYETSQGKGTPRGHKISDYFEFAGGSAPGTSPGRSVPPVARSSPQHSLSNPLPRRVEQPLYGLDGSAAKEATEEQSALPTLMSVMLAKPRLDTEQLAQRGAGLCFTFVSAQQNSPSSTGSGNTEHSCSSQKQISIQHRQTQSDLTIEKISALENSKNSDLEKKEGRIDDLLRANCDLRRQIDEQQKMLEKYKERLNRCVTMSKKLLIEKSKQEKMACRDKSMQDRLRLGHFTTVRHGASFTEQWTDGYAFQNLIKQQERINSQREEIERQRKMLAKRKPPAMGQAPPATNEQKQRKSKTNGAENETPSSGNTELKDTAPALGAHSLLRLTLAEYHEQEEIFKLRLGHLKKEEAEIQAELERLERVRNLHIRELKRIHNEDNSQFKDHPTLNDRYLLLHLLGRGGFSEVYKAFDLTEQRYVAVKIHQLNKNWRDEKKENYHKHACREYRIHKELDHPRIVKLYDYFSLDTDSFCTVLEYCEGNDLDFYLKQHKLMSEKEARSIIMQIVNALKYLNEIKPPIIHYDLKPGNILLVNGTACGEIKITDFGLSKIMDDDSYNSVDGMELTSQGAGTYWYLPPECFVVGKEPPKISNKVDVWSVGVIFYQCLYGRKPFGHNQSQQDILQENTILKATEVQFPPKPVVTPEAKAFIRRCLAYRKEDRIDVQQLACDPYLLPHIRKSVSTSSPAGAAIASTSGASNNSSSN

CDC42BPA (human) = CDC42BPA (human) (UniProt Q5VT25)
PHKG2 (human) = PHKG2 (human) (UniProt P15735)
FER (human) = FER (human) (UniProt P16591)
SYK (human) = SYK (human) (UniProt P43405)
CAMK2G (human) = CAMK2G (human) (UniProt Q13555)
LTK (human) = LTK (human) (UniProt P29376)
LTK (human), sequence (P29376 whole entry, looked up): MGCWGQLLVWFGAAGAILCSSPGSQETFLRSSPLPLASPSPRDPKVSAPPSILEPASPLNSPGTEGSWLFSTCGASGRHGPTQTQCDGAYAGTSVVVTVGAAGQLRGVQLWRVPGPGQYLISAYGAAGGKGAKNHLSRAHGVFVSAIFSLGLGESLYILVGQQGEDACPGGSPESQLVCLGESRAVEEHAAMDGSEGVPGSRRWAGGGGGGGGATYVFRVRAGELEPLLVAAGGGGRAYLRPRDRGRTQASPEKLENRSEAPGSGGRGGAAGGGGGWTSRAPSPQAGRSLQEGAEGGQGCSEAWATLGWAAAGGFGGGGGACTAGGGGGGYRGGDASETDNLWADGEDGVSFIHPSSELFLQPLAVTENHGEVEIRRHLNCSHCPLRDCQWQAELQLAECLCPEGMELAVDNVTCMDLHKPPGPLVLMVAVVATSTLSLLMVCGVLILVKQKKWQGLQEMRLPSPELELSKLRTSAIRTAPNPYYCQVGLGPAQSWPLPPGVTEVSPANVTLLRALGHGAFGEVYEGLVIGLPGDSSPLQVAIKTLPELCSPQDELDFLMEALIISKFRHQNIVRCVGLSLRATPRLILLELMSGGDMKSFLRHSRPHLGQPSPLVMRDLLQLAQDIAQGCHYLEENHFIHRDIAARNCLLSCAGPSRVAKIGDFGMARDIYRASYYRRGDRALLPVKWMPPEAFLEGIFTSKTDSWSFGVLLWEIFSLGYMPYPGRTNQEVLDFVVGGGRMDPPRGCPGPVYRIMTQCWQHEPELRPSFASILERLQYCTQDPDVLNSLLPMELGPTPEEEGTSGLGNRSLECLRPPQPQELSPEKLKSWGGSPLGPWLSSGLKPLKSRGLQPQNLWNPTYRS

DMPK (human) = DMPK (human) (UniProt Q09013)
TNNI3K (human) = TNNI3K (human) (UniProt Q59H18)
MAPK3 (human) = MAPK3 (human) (UniProt P27361)
DDR1 (human) = DDR1 (human) (UniProt Q08345)
DDR1 (human), sequence (Q08345 whole entry, looked up): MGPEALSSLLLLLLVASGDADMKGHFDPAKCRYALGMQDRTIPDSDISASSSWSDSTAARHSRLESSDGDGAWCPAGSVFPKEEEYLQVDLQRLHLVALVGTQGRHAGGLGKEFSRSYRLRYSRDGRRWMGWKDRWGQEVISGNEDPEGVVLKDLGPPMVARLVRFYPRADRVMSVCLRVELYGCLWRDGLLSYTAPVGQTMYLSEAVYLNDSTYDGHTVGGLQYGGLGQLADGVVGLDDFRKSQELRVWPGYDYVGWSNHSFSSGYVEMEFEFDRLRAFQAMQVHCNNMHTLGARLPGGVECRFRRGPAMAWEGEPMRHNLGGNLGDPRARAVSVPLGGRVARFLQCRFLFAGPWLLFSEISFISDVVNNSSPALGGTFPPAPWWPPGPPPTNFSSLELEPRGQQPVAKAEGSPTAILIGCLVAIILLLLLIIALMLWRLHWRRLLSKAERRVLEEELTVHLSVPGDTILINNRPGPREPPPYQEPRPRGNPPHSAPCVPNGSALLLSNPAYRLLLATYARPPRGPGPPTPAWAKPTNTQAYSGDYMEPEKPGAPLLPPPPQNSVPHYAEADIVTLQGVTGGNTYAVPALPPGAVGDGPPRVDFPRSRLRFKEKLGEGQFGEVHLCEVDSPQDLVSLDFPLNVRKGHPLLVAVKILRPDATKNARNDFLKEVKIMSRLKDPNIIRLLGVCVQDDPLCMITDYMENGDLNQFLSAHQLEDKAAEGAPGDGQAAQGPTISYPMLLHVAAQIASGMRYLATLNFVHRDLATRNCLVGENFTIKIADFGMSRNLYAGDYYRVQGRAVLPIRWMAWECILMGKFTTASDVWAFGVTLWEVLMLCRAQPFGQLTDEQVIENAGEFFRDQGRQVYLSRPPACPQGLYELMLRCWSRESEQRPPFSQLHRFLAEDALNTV

CAMK1G (human) = CAMK1G (human) (UniProt Q96NX5)
CAMK1G (human), sequence (Q96NX5 whole entry, looked up): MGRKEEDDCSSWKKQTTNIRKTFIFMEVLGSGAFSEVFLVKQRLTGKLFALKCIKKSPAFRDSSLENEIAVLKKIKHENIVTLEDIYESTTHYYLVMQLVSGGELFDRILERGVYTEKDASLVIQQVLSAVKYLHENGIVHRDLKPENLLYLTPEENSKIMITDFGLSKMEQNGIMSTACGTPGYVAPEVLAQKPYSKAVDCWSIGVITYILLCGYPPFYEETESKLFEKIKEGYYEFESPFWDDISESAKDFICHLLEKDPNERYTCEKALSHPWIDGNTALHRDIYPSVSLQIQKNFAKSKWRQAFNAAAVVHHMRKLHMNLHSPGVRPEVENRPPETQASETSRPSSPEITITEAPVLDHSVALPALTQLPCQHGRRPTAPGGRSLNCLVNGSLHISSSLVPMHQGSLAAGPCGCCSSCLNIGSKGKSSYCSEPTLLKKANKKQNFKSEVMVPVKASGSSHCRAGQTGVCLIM

STK25 (human) = STK25 (human) (UniProt O00506)
NUAK2 (human) = NUAK2 (human) (UniProt Q9H093)
ALK (human) = ALK (human) (UniProt Q9UM73)
CSNK1G2 (human) = CSNK1G2 (human) (UniProt P78368)
STK39 (human) = STK39 (human) (UniProt Q9UEW8)
ULK2 (human) = ULK2 (human) (UniProt Q8IYT8)
CHUK (human) = CHUK (human) (UniProt O15111)
SIK3 (human) = SIK3 (human) (UniProt Q9Y2K2)
ERBB3 (human) = ERBB3 (human) (UniProt P21860)

ACVR2B (human), sequence (Q13705 whole entry, looked up): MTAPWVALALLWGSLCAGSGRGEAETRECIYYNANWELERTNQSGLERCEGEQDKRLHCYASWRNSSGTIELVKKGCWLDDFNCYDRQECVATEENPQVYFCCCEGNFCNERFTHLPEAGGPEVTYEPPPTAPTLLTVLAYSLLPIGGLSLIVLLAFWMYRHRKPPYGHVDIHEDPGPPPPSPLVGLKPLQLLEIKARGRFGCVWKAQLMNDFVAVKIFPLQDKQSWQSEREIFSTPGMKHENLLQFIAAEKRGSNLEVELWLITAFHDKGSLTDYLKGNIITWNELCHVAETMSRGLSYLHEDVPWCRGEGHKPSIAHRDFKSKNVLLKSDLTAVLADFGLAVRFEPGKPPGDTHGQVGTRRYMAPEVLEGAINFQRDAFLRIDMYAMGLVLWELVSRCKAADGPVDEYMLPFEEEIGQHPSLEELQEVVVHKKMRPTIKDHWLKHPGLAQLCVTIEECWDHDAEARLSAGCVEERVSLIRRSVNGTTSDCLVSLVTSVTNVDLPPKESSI

COc1ccc(N(C(=O)Oc2cc(C(=O)Nc3cccc(C(F)(F)F)c3)ccc2C)c2ccnc(Nc3ccc(N4CCN(C)CC4)cc3)n2)c(OC)c1
kinase still bound, per cent of control (BMPR1B (human)): 100% | kinase still bound, per cent of control (ACVR2B (human)): 100% | kinase still bound, per cent of control (MAP2K6 (human)): 100% | kinase still bound, per cent of control (RPS6KA6 KD1 (human)): 100% | kinase still bound, per cent of control (PRKG2 (human)): 100% | kinase still bound, per cent of control (EPHA6 (human)): 0.35% | kinase still bound, per cent of control (PAK3 (human)): 11% | kinase still bound, per cent of control (RPS6KA2 KD1 (human)): 100% | kinase still bound, per cent of control (MKNK2 (human)): 100% | kinase still bound, per cent of control (NEK7 (human)): 100% | kinase still bound, per cent of control (CDK3 (human)): 100% | kinase still bound, per cent of control (DYRK1B (human)): 100% | kinase still bound, per cent of control (PAK4 (human)): 100% | kinase still bound, per cent of control (TLK2 (human)): 100% | kinase still bound, per cent of control (CDC42BPA (human)): 100% | kinase still bound, per cent of control (PHKG2 (human)): 100% | kinase still bound, per cent of control (FER (human)): 4.4% | kinase still bound, per cent of control (SYK (human)): 4% | kinase still bound, per cent of control (CAMK2G (human)): 100% | kinase still bound, per cent of control (LTK (human)): 2.7% | kinase still bound, per cent of control (DMPK (human)): 100% | kinase still bound, per cent of control (TNNI3K (human)): 0.6% | kinase still bound, per cent of control (MAPK3 (human)): 100% | kinase still bound, per cent of control (DDR1 (human)): 0.55% | kinase still bound, per cent of control (CAMK1G (human)): 100% | kinase still bound, per cent of control (STK25 (human)): 100% | kinase still bound, per cent of control (NUAK2 (human)): 100% | kinase still bound, per cent of control (ALK (human)): 10% | kinase still bound, per cent of control (CSNK1G2 (human)): 100%

CCOc1cc(N2CCC(O)CC2)ccc1Nc1ncc2c(n1)N(C)c1ccccc1C(=O)N2C
kinase still bound, per cent of control (BMPR1B (human)): 100% | kinase still bound, per cent of control (ACVR2B (human)): 100% | kinase still bound, per cent of control (MAP2K6 (human)): 100% | kinase still bound, per cent of control (RPS6KA6 KD1 (human)): 100% | kinase still bound, per cent of control (PRKG2 (human)): 100% | kinase still bound, per cent of control (EPHA6 (human)): 100% | kinase still bound, per cent of control (PAK3 (human)): 100% | kinase still bound, per cent of control (RPS6KA2 KD1 (human)): 100% | kinase still bound, per cent of control (MKNK2 (human)): 100% | kinase still bound, per cent of control (NEK7 (human)): 100% | kinase still bound, per cent of control (STK39 (human)): 100% | kinase still bound, per cent of control (CDK3 (human)): 100% | kinase still bound, per cent of control (ULK2 (human)): 100% | kinase still bound, per cent of control (DYRK1B (human)): 100% | kinase still bound, per cent of control (PAK4 (human)): 100% | kinase still bound, per cent of control (CHUK (human)): 100% | kinase still bound, per cent of control (TLK2 (human)): 100% | kinase still bound, per cent of control (CDC42BPA (human)): 100% | kinase still bound, per cent of control (PHKG2 (human)): 100% | kinase still bound, per cent of control (FER (human)): 100% | kinase still bound, per cent of control (SIK3 (human)): 100% | kinase still bound, per cent of control (SYK (human)): 100% | kinase still bound, per cent of control (CAMK2G (human)): 100% | kinase still bound, per cent of control (LTK (human)): 100% | kinase still bound, per cent of control (DMPK (human)): 100% | kinase still bound, per cent of control (TNNI3K (human)): 100% | kinase still bound, per cent of control (MAPK3 (human)): 100% | kinase still bound, per cent of control (DDR1 (human)): 100% | kinase still bound, per cent of control (CAMK1G (human)): 100% | kinase still bound, per cent of control (STK25 (human)): 100% | kinase still bound, per cent of control (NUAK2 (human)): 100% | kinase still bound, per cent of control (ALK (human)): 29% | kinase still bound, per cent of control (ERBB3 (human)): 100% | kinase still bound, per cent of control (CSNK1G2 (human)): 100%

Cc1cn(-c2cc(C(=O)Nc3ccc(C)c(NC(=O)c4ccno4)c3)cc(C(F)(F)F)c2)cn1
kinase still bound, per cent of control (BMPR1B (human)): 100% | kinase still bound, per cent of control (ACVR2B (human)): 100% | kinase still bound, per cent of control (MAP2K6 (human)): 100% | kinase still bound, per cent of control (RPS6KA6 KD1 (human)): 100% | kinase still bound, per cent of control (PRKG2 (human)): 100% | kinase still bound, per cent of control (EPHA6 (human)): 100% | kinase still bound, per cent of control (PAK3 (human)): 100% | kinase still bound, per cent of control (RPS6KA2 KD1 (human)): 100% | kinase still bound, per cent of control (MKNK2 (human)): 100% | kinase still bound, per cent of control (NEK7 (human)): 100% | kinase still bound, per cent of control (STK39 (human)): 100% | kinase still bound, per cent of control (CDK3 (human)): 100% | kinase still bound, per cent of control (ULK2 (human)): 100% | kinase still bound, per cent of control (DYRK1B (human)): 100% | kinase still bound, per cent of control (PAK4 (human)): 100% | kinase still bound, per cent of control (CHUK (human)): 100% | kinase still bound, per cent of control (TLK2 (human)): 100% | kinase still bound, per cent of control (CDC42BPA (human)): 100% | kinase still bound, per cent of control (PHKG2 (human)): 100% | kinase still bound, per cent of control (FER (human)): 100% | kinase still bound, per cent of control (SIK3 (human)): 100% | kinase still bound, per cent of control (SYK (human)): 100% | kinase still bound, per cent of control (CAMK2G (human)): 100% | kinase still bound, per cent of control (LTK (human)): 100% | kinase still bound, per cent of control (DMPK (human)): 100% | kinase still bound, per cent of control (TNNI3K (human)): 29% | kinase still bound, per cent of control (MAPK3 (human)): 100% | kinase still bound, per cent of control (DDR1 (human)): 0.1% | kinase still bound, per cent of control (CAMK1G (human)): 100% | kinase still bound, per cent of control (STK25 (human)): 100% | kinase still bound, per cent of control (NUAK2 (human)): 100% | kinase still bound, per cent of control (ALK (human)): 100% | kinase still bound, per cent of control (ERBB3 (human)): 100% | kinase still bound, per cent of control (CSNK1G2 (human)): 100%

COc1cc(N2CCC(C(N)=O)CC2)ccc1Nc1nc(N)c(Cl)c(Nc2ccccc2S(=O)(=O)C(C)C)n1
kinase still bound, per cent of control (BMPR1B (human)): 100% | kinase still bound, per cent of control (ACVR2B (human)): 100% | kinase still bound, per cent of control (MAP2K6 (human)): 100% | kinase still bound, per cent of control (RPS6KA6 KD1 (human)): 100% | kinase still bound, per cent of control (PRKG2 (human)): 100% | kinase still bound, per cent of control (EPHA6 (human)): 100% | kinase still bound, per cent of control (PAK3 (human)): 100% | kinase still bound, per cent of control (RPS6KA2 KD1 (human)): 100% | kinase still bound, per cent of control (MKNK2 (human)): 14% | kinase still bound, per cent of control (NEK7 (human)): 100% | kinase still bound, per cent of control (CDK3 (human)): 100% | kinase still bound, per cent of control (ULK2 (human)): 100% | kinase still bound, per cent of control (DYRK1B (human)): 100% | kinase still bound, per cent of control (PAK4 (human)): 100% | kinase still bound, per cent of control (CHUK (human)): 100% | kinase still bound, per cent of control (TLK2 (human)): 100% | kinase still bound, per cent of control (CDC42BPA (human)): 100% | kinase still bound, per cent of control (PHKG2 (human)): 13% | kinase still bound, per cent of control (FER (human)): 0.6% | kinase still bound, per cent of control (SYK (human)): 100% | kinase still bound, per cent of control (CAMK2G (human)): 100% | kinase still bound, per cent of control (LTK (human)): 0.6% | kinase still bound, per cent of control (DMPK (human)): 100% | kinase still bound, per cent of control (TNNI3K (human)): 100% | kinase still bound, per cent of control (MAPK3 (human)): 100% | kinase still bound, per cent of control (DDR1 (human)): 100% | kinase still bound, per cent of control (CAMK1G (human)): 100% | kinase still bound, per cent of control (STK25 (human)): 100% | kinase still bound, per cent of control (NUAK2 (human)): 100% | kinase still bound, per cent of control (ALK (human)): 4.5% | kinase still bound, per cent of control (CSNK1G2 (human)): 100%

COc1cc(C)c(Sc2cnc(NC(=O)c3ccc(CNC(C)C(C)C)cc3)s2)cc1C(=O)N1CCN(C(C)=O)CC1 (centres undefined)
kinase still bound, per cent of control (BMPR1B (human)): 100% | kinase still bound, per cent of control (ACVR2B (human)): 100% | kinase still bound, per cent of control (MAP2K6 (human)): 100% | kinase still bound, per cent of control (RPS6KA6 KD1 (human)): 100% | kinase still bound, per cent of control (PRKG2 (human)): 100% | kinase still bound, per cent of control (EPHA6 (human)): 11% | kinase still bound, per cent of control (PAK3 (human)): 100% | kinase still bound, per cent of control (RPS6KA2 KD1 (human)): 100% | kinase still bound, per cent of control (MKNK2 (human)): 100% | kinase still bound, per cent of control (NEK7 (human)): 14% | kinase still bound, per cent of control (CDK3 (human)): 100% | kinase still bound, per cent of control (ULK2 (human)): 24% | kinase still bound, per cent of control (DYRK1B (human)): 100% | kinase still bound, per cent of control (PAK4 (human)): 100% | kinase still bound, per cent of control (CHUK (human)): 100% | kinase still bound, per cent of control (TLK2 (human)): 100% | kinase still bound, per cent of control (CDC42BPA (human)): 100% | kinase still bound, per cent of control (PHKG2 (human)): 11% | kinase still bound, per cent of control (FER (human)): 15% | kinase still bound, per cent of control (SYK (human)): 100% | kinase still bound, per cent of control (CAMK2G (human)): 100% | kinase still bound, per cent of control (LTK (human)): 34% | kinase still bound, per cent of control (DMPK (human)): 100% | kinase still bound, per cent of control (TNNI3K (human)): 100% | kinase still bound, per cent of control (MAPK3 (human)): 100% | kinase still bound, per cent of control (DDR1 (human)): 100% | kinase still bound, per cent of control (CAMK1G (human)): 100% | kinase still bound, per cent of control (STK25 (human)): 100% | kinase still bound, per cent of control (NUAK2 (human)): 25% | kinase still bound, per cent of control (ALK (human)): 4.6% | kinase still bound, per cent of control (CSNK1G2 (human)): 100%
